The text below walks through data of US20130303507A1 (Novartis AG, priority 2011, published 2013).

Several values for one entry are separate records, joined by “and”; a condition that tells them apart may be missing. Equal entries are not always repeated.

T1 sequence (P50750 whole entry): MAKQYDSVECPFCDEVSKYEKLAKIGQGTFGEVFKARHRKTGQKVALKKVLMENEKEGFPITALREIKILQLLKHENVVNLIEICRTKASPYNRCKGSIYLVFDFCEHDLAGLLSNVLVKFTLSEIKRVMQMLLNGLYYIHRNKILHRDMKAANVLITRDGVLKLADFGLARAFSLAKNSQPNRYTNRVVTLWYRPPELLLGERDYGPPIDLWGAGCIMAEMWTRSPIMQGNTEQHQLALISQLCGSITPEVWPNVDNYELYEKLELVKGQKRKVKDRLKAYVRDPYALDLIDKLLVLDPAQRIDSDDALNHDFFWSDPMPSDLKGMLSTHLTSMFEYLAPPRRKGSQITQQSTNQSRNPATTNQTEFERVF
T1 sequence (O60563 whole entry partner): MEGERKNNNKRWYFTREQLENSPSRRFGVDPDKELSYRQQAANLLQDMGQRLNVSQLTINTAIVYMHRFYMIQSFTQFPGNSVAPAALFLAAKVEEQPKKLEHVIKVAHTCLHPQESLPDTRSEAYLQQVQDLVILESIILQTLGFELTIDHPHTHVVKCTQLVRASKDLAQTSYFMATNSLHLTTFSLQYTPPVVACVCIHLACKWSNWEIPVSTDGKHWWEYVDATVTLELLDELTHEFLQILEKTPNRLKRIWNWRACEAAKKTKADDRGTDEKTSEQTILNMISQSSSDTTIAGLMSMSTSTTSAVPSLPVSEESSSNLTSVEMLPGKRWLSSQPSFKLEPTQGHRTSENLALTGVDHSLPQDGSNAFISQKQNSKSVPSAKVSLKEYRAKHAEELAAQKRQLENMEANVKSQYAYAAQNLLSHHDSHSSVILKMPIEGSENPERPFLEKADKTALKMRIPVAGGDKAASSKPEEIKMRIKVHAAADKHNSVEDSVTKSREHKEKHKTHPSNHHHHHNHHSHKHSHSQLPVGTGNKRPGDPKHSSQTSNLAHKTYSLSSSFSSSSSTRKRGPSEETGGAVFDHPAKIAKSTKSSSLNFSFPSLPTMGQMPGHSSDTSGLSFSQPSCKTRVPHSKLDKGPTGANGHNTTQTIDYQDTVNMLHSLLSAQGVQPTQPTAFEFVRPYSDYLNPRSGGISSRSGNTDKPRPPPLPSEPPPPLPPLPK

The first experiment concerns the target T1, Cdk9/cyclinT1 (Homo sapiens, UniProt P50750). In words: Cdk9/cyclinT1 IMAP protocol (fluorescence polarization). To be noted: IC-50, CDK9; lower limit of assay 0.0005 micromolar. (In general: In fluorescence polarisation assays a small probe gives low polarisation when free and higher when bound to something large.)
Take `N#CC1(CNc2cccc(-c3cc(N[C@H]4CC[C@H](CNS(=O)(=O)c5ccccc5)CC4)ncc3Cl)n2)CCOCC1` [Compound 496, N-((trans-4-((5′-chloro-6-(((4-cyanotetrahydro-2H-pyran-4-yl)methyl)amino)-[2,4′-bipyridin]-2′-yl)amino)cyclohexyl)methyl) benzenesulfonamide]: the IC50 was less than 0.5 nM. On to `COC(=O)NC[C@H]1CC[C@H](Nc2cc(-c3cccc(NCC4(C#N)CCOCC4)n3)c(Cl)cn2)CC1` [Compound 497, methyl ((trans-4-((5′-chloro-6-(((4-cyanotetrahydro-2H-pyran-4-yl)methyl)amino)-[2,4′-bipyridin]-2′-yl)amino)cyclohexyl)methyl) carbamate], for which the IC50 is less than 0.5 nM. `COCC(=O)NC[C@H]1CC[C@H](Nc2cc(-c3cccc(NCC4(C#N)CCOCC4)n3)c(Cl)cn2)CC1` [Compound 498, N-((trans-4-((5′-chloro-6-(((4-cyanotetrahydro-2H-pyran-4-yl)methyl)amino)-[2,4′-bipyridin]-2′-yl)amino)cyclohexyl)methyl)-2-methoxyacetamide] yielded an IC50 of less than 0.5 nM.

`CN(C)C(=O)NC[C@H]1CC[C@H](Nc2cc(-c3cccc(NCC4(C#N)CCOCC4)n3)c(Cl)cn2)CC1` [Compound 499, 3-((trans-4-((5′-chloro-6-(((4-cyanotetrahydro-2H-pyran-4-yl)methyl)amino)-[2,4′-bipyridin]-2′-yl)amino)cyclohexyl)methyl)-1,1-dimethylurea] yielded an IC50 of 0.6 nM.

`N#CC1(CNc2cccc(-c3cc(N[C@@H]4CCCc5ccccc54)ncc3Cl)n2)CCOCC1` [Compound 500, (R)-4-(((5′-chloro-2′-((1,2,3,4-tetrahydronaphthalen-1-yl)amino)-[2,4′-bipyridin]-6-yl)amino)methyl)tetrahydro-2H-pyran-4-carbonitrile] displayed an IC50 of 20 nM.

On to `N#CC1(CNc2cccc(-c3cc(N[C@H]4CCCc5ccccc54)ncc3Cl)n2)CCOCC1` [Compound 501, (S)-4-(((5′-chloro-2′-((1,2,3,4-tetrahydronaphthalen-1-yl)amino)-[2,4′-bipyridin]-6-yl)amino)methyl)tetrahydro-2H-pyran-4-carbonitrile], for which the IC50 was 480 nM.

Take `C[C@H]1COCCN1[C@H]1CC[C@H](Nc2cc(-c3cccc(NCC4(C#N)CCOCC4)n3)c(Cl)cn2)CC1` [Compound 502, 4-((5′-chloro-2′-(trans-4-((S)-3-methylmorpholino)cyclohexyl-amino)-2,4′-bipyridin-6-ylamino)methyl)tetrahydro-2H-pyran-4-carbonitrile]: the IC50 was found to be 2.9 nM. The same measure, in the same setting: the same measure for `C[C@@H]1COCCN1[C@H]1CC[C@H](Nc2cc(-c3cccc(NCC4(C#N)CCOCC4)n3)c(Cl)cn2)CC1` [Compound 503, 4-(((5′-chloro-2′-((trans-4-((R)-3-methylmorpholino)cyclohexyl)amino)-[2,4′-bipyridin]-6-yl)amino)methyl)tetrahydro-2H-pyran-4-carbonitrile]: 2.6 nM; for `N#CC1(CNc2cccc(-c3cc(N[C@H]4CC[C@H](CNc5nc6ccccc6o5)CC4)ncc3Cl)n2)CCOCC1` [Compound 504, 4-(((2′-((trans-4-((benzo[d]oxazol-2-ylamino)methyl)cyclohexyl)amino)-5′-chloro-[2,4′-bipyridin]-6-yl)amino)methyl)tetrahydro-2H-pyran-4-carbonitrile]: 1 nM. As for `N#CC1(CNc2cccc(-c3cc(N[C@H]4CC[C@H](CNc5cc(Cl)ncn5)CC4)ncc3Cl)n2)CCOCC1` [Compound 505, 4-(((5′-chloro-2′-((trans-4-(((6-chloropyrimidin-4-yl)amino)methyl)cyclohexyl)amino)-[2,4′-bipyridin]-6-yl)amino)methyl)tetrahydro-2H-pyran-4-carbonitrile], the IC50 is not above 0.5 nM. Take `COC[C@@H](C)N[C@H]1CC[C@H](Nc2cc(-c3nc(NCC4(C#N)CCOCC4)cnc3Cl)c(Cl)cn2)CC1` [Compound 506, 4-(((5-chloro-6-(5-chloro-2-((trans-4-(((R)-1-methoxypropan-2-yl)amino)cyclohexyl)amino)pyridin-4-yl)pyrazin-2-yl)amino)methyl)tetrahydro-2H-pyran-4-carbonitrile]: the IC50 is not above 0.5 nM. The same measure, in the same setting: the same measure for `COC[C@@H](C)N[C@H]1CC[C@H](Nc2cc(-c3cncc(NCC4(C#N)CCOCC4)n3)c(Cl)cn2)CC1` [Compound 507, 4-(((6-(5-chloro-2-((trans-4-(((R)-1-methoxypropan-2-yl)amino)cyclohexyl)amino)pyridin-4-yl)pyrazin-2-yl)amino)methyl)tetrahydro-2H-pyran-4-carbonitrile]: less than 0.5 nM; for `COCCN[C@H]1CC[C@H](Nc2cc(-c3nc(NCC4(C#N)CCOCC4)cnc3Cl)c(Cl)cn2)CC1` [Compound 508, 4-(((5-chloro-6-(5-chloro-2-((trans-4-((2-methoxyethyl)amino)cyclohexyl)amino)pyridin-4-yl)pyrazin-2-yl)amino)methyl)tetrahydro-2H-pyran-4-carbonitrile]: less than 0.5 nM; for `COC[C@@H](C)N[C@H]1CC[C@H](Nc2cc(-c3cncc(OCC4(C#N)CCOCC4)n3)c(Cl)cn2)CC1` [Compound 509, 4-(((6-(5-chloro-2-((trans-4-(((R)-1-methoxypropan-2-yl)amino)cyclohexyl)amino)pyridin-4-yl)pyrazin-2-yl)oxy)methyl)tetrahydro-2H-pyran-4-carbonitrile]: 1.1 nM. `COCCN[C@H]1CC[C@H](Nc2cc(-c3cncc(OCC4(C#N)CCOCC4)n3)c(Cl)cn2)CC1` [Compound 510, 4-(((6-(5-chloro-2-((trans-4-((2-methoxyethyl)amino)cyclohexyl)amino)pyridin-4-yl)pyrazin-2-yl)oxy)methyl)tetrahydro-2H-pyran-4-carbonitrile] gave an IC50 of 1.3 nM. Still for that read-out and setting: under `N#CC1(COc2cncc(-c3cc(N[C@H]4CC[C@H](N)CC4)ncc3Cl)n2)CCOCC1` [Compound 511, 4-(((6-(2-((trans-4-aminocyclohexyl)amino)-5-chloropyridin-4-yl)pyrazin-2-yl)oxy)methyl)tetrahydro-2H-pyran-4-carbonitrile] stands 0.6 nM. `N#CC1(CNc2cccc(-c3cc(NC4CNC4)ncc3Cl)n2)CCOCC1` [Example 401] displayed an IC50 of 81 nM. On to `N#CC1(CNc2cccc(-c3cc(NC4CCNCC4)ncc3Cl)n2)CCOCC1` [Example 402], for which the IC50 amounted to 4.8 nM. Still for that read-out and setting: the same measure for `N#CC1(CNc2cccc(-c3cc(N[C@@H]4CC[C@@H](N(CC5CCCO5)CC5CCCO5)C4)ncc3Cl)n2)CCOCC1` (some centres unmarked) [Example 407]: 5.5 nM.

The target of a further experiment is T1, Cdk9/cyclinT1. In words: Cdk9/cyclinT1 Alpha Screen protocol. Type of experiment: biochemical. To be noted: TFA salt; individual determinations; read-out: CDK9_cyclinT1_AS2_IC50. The arrangement: Full length wild type Cdk9/cyclin T1 is purchased from Invitrogen; purchased Invitrogen PV4131. As for the experimental part: Cdk9/cyclinT1 Alpha Screen Protocol
Full length wild type Cdk9/cyclin T1 is purchased from Invitrogen, cat#PV4131. […] The cdk7tide peptide substrate, biotin-[…] -OH, is a custom synthesis purchased from the Tufts University Core Facility. The final concentration of cdk7tide peptide substrate is 200 nM. […] Phospho-Rpb1 CTD (ser2/5) substrate antibody is purchased from Cell Signaling Technology. The final concentration of antibody is 0.67 ug/ml. The Alpha Screen Protein A detection kit containing donor and acceptor beads is purchased from PerkinElmer Life Sciences. The final concentration of both donor and acceptor beads is 15 ug/ml. Alpha Screen is used for detection. […] The biotinylated-cdk7tide peptide substrate is bound to the streptavidin coated donor bead. The antibody is bound to the protein A coated acceptor bead. The antibody will bind to the phosphorylated form of the biotinylated-cdk7tide peptide substrate, bringing the donor and acceptor beads into close proximity. Laser irradiation of the donor bead at 680 nm generates a flow of short-lived singlet oxygen molecules. When the donor and acceptor beads are in close proximity, the reactive oxygen generated by the irradiation of the donor beads initiates a luminescence/fluorescence cascade in the acceptor beads. This process leads to a highly amplified signal with output in the 530-620 nm range. Assays are carried out in 50 mM Hepes, pH=7.5, 10 mM MgCl2, 0.1% Bovine Serum Albumin, 0.01% Tween-20, 1 mM Dithiothreitol, 2.5% Dimethyl Sulfoxide. Stop and detection steps are combined using 50 mM Hepes, pH=7.5, 18 mM EDTA, 0.1% Bovine Serum Albumin, 0.01% Tween-20.
Consider `CO[C@H]1CCN([C@H]2CC[C@@H](Nc3cc(-c4cccc(NCC5(C#N)CCOCC5)n4)c(Cl)cn3)CC2)C1` [Compound 513], for which the IC50 was determined as 26.1 nM. As to `CO[C@H]1CCN([C@H]2CC[C@H](Nc3cc(-c4cccc(NCC5(C#N)CCOCC5)n4)c(Cl)cn3)CC2)C1` [Compound 514], the IC50 stood at 0.826 nM. Still for that read-out and setting: the same measure for `CC(C)(C)OCCN[C@H]1CC[C@H](Nc2cc(-c3cccc(NCC4(C#N)CCOCC4)n3)c(Cl)cn2)CC1` [Compound 515]: 2.19 nM. On the same count and under the same terms, the same measure for `CC(C)(C)OCCN(CCOC(C)(C)C)[C@H]1CC[C@H](Nc2cc(-c3cccc(NCC4(C#N)CCOCC4)n3)c(Cl)cn2)CC1` [Compound 518]: 8.57 nM; for `COC[C@@H](C)N[C@H]1CC[C@H](Nc2cc(-c3cccc(NCC4(C#N)CCOCC4)n3)c(F)cn2)CC1` [Compound 519]: 0.252 nM and 0.218 nM and 0.232 nM and 0.38 nM. `COC[C@H](C)N[C@H]1CC[C@H](Nc2cc(-c3cccc(NCC4(C#N)CCOCC4)n3)c(F)cn2)CC1` [Compound 520]: the IC50 is 0.458 nM and 0.413 nM. Still for that read-out and setting: the same measure for `N#CC1(CNc2cccc(-c3cc(N[C@H]4CC[C@H](N[C@H]5CCCC[C@@H]5O)CC4)ncc3Cl)n2)CCOCC1` [Compound 523]: 0.33 nM.

Still in this experiment, the particulars now being: neutral species; individual determinations; read-out: CDK9_cyclinT1_AS2_IC50.
For the compound `COC[C@@H](C)N[C@H]1CC[C@H](Nc2cc(-c3cnc(Cl)c(NCC4(C#N)CCOCC4)n3)c(Cl)cn2)CC1` [Compound 512], the IC50 came to 254 nM. Same read-out and setting: under `CO[C@H]1CCN([C@H]2CC[C@@H](Nc3cc(-c4cccc(NCC5(C#N)CCOCC5)n4)c(Cl)cn3)CC2)C1` [Compound 513] stands 5.39 nM; under `CO[C@H]1CCN([C@H]2CC[C@H](Nc3cc(-c4cccc(NCC5(C#N)CCOCC5)n4)c(Cl)cn3)CC2)C1` [Compound 514], 0.553 nM. With `CC(C)(C)OCCN[C@H]1CC[C@H](Nc2cc(-c3cccc(NCC4(C#N)CCOCC4)n3)c(Cl)cn2)CC1` [Compound 515], the IC50 came out at 0.217 nM. Take `CO[C@H]1CCN([C@H]2CC[C@H](Nc3cc(-c4cccc(NCC5(C#N)CCOCC5)n4)c(F)cn3)CC2)C1` [Compound 516]: the IC50 was 0.835 nM. As to `CO[C@H]1CCN([C@H]2CC[C@@H](Nc3cc(-c4cccc(NCC5(C#N)CCOCC5)n4)c(F)cn3)CC2)C1` [Compound 517], the IC50 was found to be 8.61 nM. On the same count and under the same terms, under `COC[C@@H](C)N[C@H]1CC[C@H](Nc2cc(-c3cccc(NCC4(C#N)CCOCC4)n3)c(F)cn2)CC1` [Compound 519] stands 0.235 nM.

Regarding `CC(C)(O)CN[C@H]1CC[C@H](Nc2cc(-c3cccc(NCC4(C#N)CCOCC4)n3)c(Cl)cn2)CC1` [Compound 521], the IC50 was determined as 0.475 nM.

As for `CC(C)(O)CN[C@H]1CC[C@H](Nc2cc(-c3cccc(NCC4(C#N)CCOCC4)n3)c(F)cn2)CC1` [Compound 522], the IC50 stood at 0.421 nM.
